The values that follow come from paper PMC4397963, “Phospho-Tyrosine(s) vs. Phosphatidylinositol Binding in Shc Mediated Integrin Signaling” (American journal of molecular biology, 2015).

“Also recorded” adds a separate entry of the source.

The target in experiment [1] is apo PTB domain of Shc. To be noted: unilamellar liposomes centrifugation assay; ref [15]; read-out: binding affinity, apo PTB domain; cited from earlier work.
For experiment [2], the system named is apo Shc PTB domain. The experiment is described as follows: 15N-HSQC NMR titration of apo Shc PTB domain. It counts as binding. To be noted: 15N-labelled apo PTB 100 – 200 μM, 50 mM Tris pH 7.5, 100 mM NaCl, 35°C; lipid to protein up to 15 to 1 (Ins(1,4,5)P3), 5 to 1 (PtdIns(4,5)P2). On the procedure:
^15N-labelled recombinant proteins were overexpressed in M9 medium supplemented with ^15NH4Cl as the sole nitrogen source. The same purification procedures as described above were followed. NMR samples of 100 – 200 μM were prepared in a buffer of 50 mM Tris, pH 7.5, 100 mM NaCl, 5 mM β-mercaptoethanol, 7% D2O, 1 mM 4,4-dimethyl-4-silapentane-1-sulfonic acid as the internal standard. ^15N-HSQC titration experiments were performed on a Varian/Agilent Inova 600 MHz spectrometer equipped with inverse-triple resonance cryo-probe at 35°C. All spectra were processed with NMRPipe and analyzed in CCPNmr Analysis software suite.
To find out the molecular details of these weak Shc-PtdIns interactions, we next employed NMR and performed ^15N-HSQC chemical shifts mapping experiments which are especially useful to define weak binding. […] Chemical shift perturbations, associated with the probes binding, were monitored. Overall, the observed shifts in Shc PTB resonance frequencies were small. However, they were concentration dependent, reproducible, and similar among the two PtdIns tested. […] The close-ups of 15N-HSQC spectra of PTB in the presence of PtdIns(4,5)P2, exemplifying the most shifted resonances, are shown in Figure 2. […] The first one, represented by the residues Q^148, S^149 and A^168, overlaps with the classical phosphotyrosine binding pocket of the protein-peptide binary complex. However, the canonical PTB fold cannot be formed without the stabilizing hydrophobic residue (pY-5) of the target peptide. Thus, in apo PTB domain Ins(1,4,5)P3 could only establish intermediate dynamic contacts with the amine functional groups of R^67 or Q^148 side chains. The second binding site, including the residues L^63, Q^76 and S^107, is formed at the interface of the second helix, the loop connecting the first beta strand with the second helix and the beginning of the second beta strand. This second PtdIns binding site is distinct from the second novel phosphotyrosine binding site we previously described for Shc PTB-bi-β3 complex, although it includes several overlapping residues. […]

In experiment [3] the test system is Shc PTB domain. Conditions: ref [15]; cited from earlier work. The text has this:
Since their discovery about two decades ago, PTB domains have been identified and structurally characterized within numerous multi-domain proteins. The ways they interact with their targets are strikingly versatile. The phosphorylated tyrosine is not always required for the high affinity interactions, and, in some cases, the binding motif might not even contain the tyrosine residue at all. PTB domains in general are also famous for the significant variance in their ligand binding affinities, ranging from 0.1 to 100 μM [17].

Experiment [4] deals with T1, Shc PTB domain (17 – 207) (Homo sapiens, UniProt P29353).
T1 construct: The Shc PTB domain (17 – 207) containing the pET15b vector was transformed into a Rosetta (DE3) cell line; His-tag (N); made in house; host or cells: E. coli Rosetta (DE3), pET15b
T1 sequence (P29353 17-207 isoform P29353-2): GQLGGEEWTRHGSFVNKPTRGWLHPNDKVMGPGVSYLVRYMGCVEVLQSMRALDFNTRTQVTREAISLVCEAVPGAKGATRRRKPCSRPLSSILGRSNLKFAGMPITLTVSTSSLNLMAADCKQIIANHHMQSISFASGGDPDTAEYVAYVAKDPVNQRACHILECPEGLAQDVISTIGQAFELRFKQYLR
The experiment is described as follows: ITC binding to Shc PTB domain. To be noted: for thermodynamic character of binding (heat sign, driving force) / Kd / ΔG / ΔH / −TΔS: ITC, 25°C; for Kd / ΔG / ΔH / −TΔS: PtdIns binding to PTB domain; for Kd: 50 mM Tris pH 7.5, 100 mM NaCl, 5 mM β-mercaptoethanol, "independent" model, dihexanoyl- or dioctonoyl- PtdIns, read-out: Kd; for ΔG / ΔH / −TΔS: pH 7.5. The procedure: The Shc PTB domain (17 – 207) containing the pET15b vector was transformed into a Rosetta (DE3) cell line to pursue optimal expression levels. SH2 domain (380 – 473) was cloned into NdeI and XhoI sites in pET21b vector and then transformed into a BL21 (DE3) cell line. The vector of pET28a-full length Shc (1 – 473), generously provided by Dr. Ladbury (University of Texas MD Anderson Cancer Center, TX), was expressed in a BL21 (DE3) cell line as well. Typically, 10 ml overnight culture was used to inoculate 1 liter LB broth. Cells were grown at 37°C until OD600 reached 0.6. At this point the culture was cooled to room temperature and then the overnight overexpression was induced by 1 mM isopropyl-β-D-thiogalactopyranoside. Harvested cells were kept at −20°C for future purification or resuspended in lysis buffer supplemented with protease inhibitors. Cells were further lysed by french press and the cell debris was removed by centrifugation at 18,000 rpm at 4°C. […] The overexpression of the target protein and the purified protein were confirmed by SDS-PAGE and the bands of the expected mass were observed. The determination of protein concentration by UV measurement was consistent with Bradford assay.
Calorimetric measurements of a full length Shc, PTB domain, and SH2 domain to β3 phosphopeptides or PtdIns were performed on a low volume Nano ITC (TA Instruments). All experiments were carried out in a buffer of 50 mM Tris, pH 7.5, 100 mM NaCl, 5 mM β-mercaptoethanol (unless described otherwise) at 12°C or 25°C with a stirring speed of 250 rpm to minimize the precipitation of the protein. 300 second time intervals were set between injections. The concentration of protein samples was determined by UV measurements. The titrants (β3 phosphopeptides or PtdIns) were prepared in the same buffer by the dilution of higher concentration stocks. The concentrations of the protein ranged from 30 μM to 150 μM. The concentration of protein was examined after each ITC experiment by UV to ensure the stability of proteins under the test condition. The analysis of the data was done with Nano Analyze Software (TA Instruments) suite using an “independent” model.

Experiment [5] concerns the target PTB domain complexed with TrkA peptide. To be noted: roughly estimated; ref [15]; cited from earlier work.
Experiment [6] addresses TrkA phosphopeptide (Homo sapiens) (UniProt P04629). The experiment is described as follows: SPR. To be noted: cited from earlier work.
For experiment [7] the target is unchanged. Nature of the experiment: ITC. To be noted: cited from earlier work.

Chain of Shc PTB (P29353 156-339): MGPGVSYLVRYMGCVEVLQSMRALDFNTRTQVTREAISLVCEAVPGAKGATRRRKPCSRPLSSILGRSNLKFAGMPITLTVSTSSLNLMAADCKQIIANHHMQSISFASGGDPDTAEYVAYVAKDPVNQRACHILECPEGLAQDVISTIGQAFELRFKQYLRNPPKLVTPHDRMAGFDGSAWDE
Chain of TrkA phosphopeptide (Homo sapiens) (P04629 33-796): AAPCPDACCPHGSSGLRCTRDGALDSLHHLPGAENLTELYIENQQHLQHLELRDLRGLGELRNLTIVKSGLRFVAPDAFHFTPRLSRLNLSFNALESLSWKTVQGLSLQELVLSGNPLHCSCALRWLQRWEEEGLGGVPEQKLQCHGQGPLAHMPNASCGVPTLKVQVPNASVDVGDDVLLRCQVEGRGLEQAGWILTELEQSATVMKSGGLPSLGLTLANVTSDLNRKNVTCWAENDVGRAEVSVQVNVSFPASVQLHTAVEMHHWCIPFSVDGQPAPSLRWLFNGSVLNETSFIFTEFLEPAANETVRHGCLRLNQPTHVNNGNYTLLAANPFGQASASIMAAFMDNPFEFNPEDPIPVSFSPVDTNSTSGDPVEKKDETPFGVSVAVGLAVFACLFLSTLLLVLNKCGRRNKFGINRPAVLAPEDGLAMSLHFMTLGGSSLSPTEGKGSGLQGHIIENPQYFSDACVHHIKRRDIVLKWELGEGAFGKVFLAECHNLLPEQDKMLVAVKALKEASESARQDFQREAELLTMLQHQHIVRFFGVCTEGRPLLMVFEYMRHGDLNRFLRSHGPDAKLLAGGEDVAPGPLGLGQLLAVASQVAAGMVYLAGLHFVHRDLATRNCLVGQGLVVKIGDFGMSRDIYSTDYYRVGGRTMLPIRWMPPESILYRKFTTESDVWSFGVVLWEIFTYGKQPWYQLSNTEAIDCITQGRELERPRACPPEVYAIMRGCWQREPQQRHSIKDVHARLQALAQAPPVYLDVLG

For the molecule `CCCCCCCCCCCCCCCC(=O)OC[C@H](COP(=O)(O)O[C@H]1[C@H](O)[C@@H](O)[C@H](OP(=O)(O)O)[C@@H](OP(=O)(O)O)[C@H]1O)OC(=O)CCCCCCCCCCCCCCC` [PtdIns(4,5)P2, Phosphatidylinositol-4,5-diphosphate], in experiment [1], the Kd was 140 µM. In experiment [2], the “15N-HSQC chemical shift perturbations” value is “small; also recorded: more pronounced; also recorded: three major binding regions”. The lipid specificity result in experiment [3] was “higher specificities”. Moreover, in experiment [4] (PTB domain), the “thermodynamic character of binding (heat sign, driving force)” value was “endothermic interactions at 25 °C that are driven predominantly by entropy”. Further, in experiment [4], the Kd turned out to be 125 µM, the ΔG is -5.323 kcal/mol, the ΔH was 0.464 kcal/mol and the “−TΔS” value is -5.786 kcal/mol. Besides, the Kd in experiment [5] is ~450 µM.

On to “Phosphatidylinositol-4-phosphate [PtdIns(4)P1]”, for which the Kd in experiment [1] is 52 µM. The “15N-HSQC chemical shift perturbations” value in experiment [2] is given as “small”. The lipid specificity result in experiment [3] is recorded as “higher specificities”. Moreover, in experiment [4] (PTB domain, ITC 25°C vs. centrifugation assay of ref 15), the “binding affinity relative to that reported before” value was “about two times weaker”. In addition, the “thermodynamic character of binding (heat sign, driving force)” value in experiment [4] (PTB domain) is “endothermic interactions at 25 °C that are driven predominantly by entropy”. Moreover, in experiment [4], the Kd stood at 95 µM, the ΔG is -5.485 kcal/mol, the ΔH stood at 0.361 kcal/mol and the “−TΔS” value was -5.846 kcal/mol. Further, in experiment [5], the Kd is ~450 µM.

Take Shc PTB (from UniProt P29353): the Kd was 0.053 µM in experiment [6] and 0.19 µM in experiment [7].
